Series [1] in a line: Stability in liver microsomes, rat. Format: in vitro ADME. The settings on record: 60 minutes, read-out: In vitro Clint. The method, then: (§1) For metabolic stability, microsomes from human, monkey, dog, rat and mouse were used. For stability, prodrugs (1 μM) were spiked in each microsomes matrix and incubated in an orbital shaker at 37° C. Aliquots of 50 μL were taken from the reaction solution at 0, 15, 30, 45 and 60 min. The reaction was stopped by the addition of 4 volumes of cold acetonitrile with IS (100 nM alprazolam, 200 nM labetalol, 200 nM caffeine and 2 μM ketoprofen). Samples were centrifuged at 3, 220 g for 40 minutes. Aliquot of 100 μL of the supernatant was mixed with 100 μL of ultra-pure H2O and then used for LC-MS/MS analysis.
(§2) For LC-MS/MS, prodrugs were analyzed on an API 4000 instrument from AB Inc (Canada) with an ESI interface coupled to Shimadzu LC system on an Waters XSelect HSS T3 C18, 2.5 m, 2.1×30 mm column.
(§3) For data analysis, peak areas were determined from extracted ion chromatograms. The slope value, k, was determined by linear regression of the natural logarithm of the remaining percentage of the parent drug vs. incubation time curve. The in vitro half-life (in vitro t1/2) was determined from the slope value: in vitro t1/2=−(0.693/k)
(§4) Conversion of the in vitro t1/2 (min) into the in vitro intrinsic clearance (in vitro CLint, in μL/min/mg protein) was done using the following equation (mean of duplicate determinations): […]

Series [2] in a line: Plasma stability, swine plasma. To be noted: 1 μM, 37° C., 4 hours. The method, then:
(§5) For metabolic stability, plasma from dog, monkey, swine and human were used. For stability, prodrugs (1 μM) were spiked in respective solutions and incubated in an orbital shaker at 37° C. 50 μL aliquots of the mixture in duplicate were removed, and the reaction quenched by addition of four times the volume of ice cold acetonitrile spiked with the internal standard (Dexamethasone 100 ng/mL). […] 100 μL of the supernatant was diluted with 100 μL of water and transferred to the 0.6 mL plastic tubes on 96-well plate. Prodrug disappearance was monitored over time using a liquid chromatography and tandem mass spectrometry (LC-MS/MS).
(§6) For LC-MS/MS, prodrugs were analyzed on a ExionLC AD HPLC system coupled to REF Triple Quad 5500+ mass spectrometer with an ESI interface on an Phenomenex Kinetex 5 m C18 100A (2.1*50) mm UPLC column. The autosampler was temperature controlled and was operated at 4° C. The mobile phase used for the chromatographic separation was composed of acetonitrile/water containing 0.10% formic acid and will run at a flow rate of 0.6 mL/min for 3.5 min using gradient elution. The column effluent was monitored using […], equipped with an electrospray probe set in the positive ionization mode. Samples were introduced into the ionization source through a heated nebulized probe (400° C.). Disappearance of prodrugs will be measured from ratio of peak areas of analyte to IS.
(§7) For quantification of compound remaining, disappearance of prodrugs was measured from ratio of peak areas of analyte to IS.

Series [3] in a line: Plasma stability, dog plasma. Format: in vitro ADME. To be noted: 1 μM, 37° C., 4 hours. As for the experimental part:
For metabolic stability, plasma from dog, monkey, swine and human were used. For stability, prodrugs (1 μM) were spiked in respective solutions and incubated in an orbital shaker at 37° C. 50 μL aliquots of the mixture in duplicate were removed, and the reaction quenched by addition of four times the volume of ice cold acetonitrile spiked with the internal standard (Dexamethasone 100 ng/mL). The samples were vortexed for 30 s and centrifuged at 15000 g for 5 min. 100 μL of the supernatant was diluted with 100 μL of water and transferred to the 0.6 mL plastic tubes on 96-well plate. Prodrug disappearance was monitored over time using a liquid chromatography and tandem mass spectrometry (LC-MS/MS).
as §6, §7

Series [4] in a line: Stability in liver microsomes, mouse. Format: in vitro ADME. To be noted: 60 minutes, read-out: In vitro Clint. The method, then:
as §1, §2, §3, §4

A short description of series [5]: Plasma stability, human plasma. The settings on record: 1 μM, 37° C., 4 hours. The method, then: as §5, §6, §7
Series [6] can be described thus: Plasma stability, monkey plasma. The settings on record: 1 μM, 37° C., 4 hours. As for the experimental part:
as §5, §6, §7

Series [7] in a line: Stability in liver microsomes, monkey. The settings on record: 60 minutes, read-out: In vitro Clint. Format: in vitro ADME. As for the experimental part: as §1, §2, §3, §4
A short description of series [8]: Stability in liver microsomes, dog. Format: in vitro ADME. To be noted: 60 minutes, read-out: In vitro Clint. The method, then:
as §1, §2, §3, §4

Series [9] is described as follows: Stability in liver microsomes, human. Format: in vitro ADME. The settings on record: 60 minutes, read-out: In vitro Clint. The method, then:
as §1, §2, §3, §4

The nature of series [10]: Body weight of C57BL/6 mice bearing MC38 tumors (Example 11). Format: in vivo, Mus musculus. The settings on record: C57BL/6, MC38, 2 μmol/kg S.C. QD; for BW Change (%): D6 to D20. As for the experimental part:
The treatments were started when the mean tumor size reached 82-129 mm^3 (average tumor size 102 mm^3). Each group contained 6 tumor bearing mice. Group 1 was treated with Vehicle (10% DMSO+90% Saline), S.C., QD. Group 2 was given treatments with compound 2 at 2 μmol/kg, S.C., QD. Group 3 was given treatments with compound 81 at 2 μmol/kg, S.C., QD. Group 4 was given treatments with compound 443 at 2 μmol/kg, S.C., QD. Group 5 was given treatments with compound 459 at 2 μmol/kg, S.C., QD. Group 6 was given treatments with compound 3 at 2 μmol/kg, S.C., QD.
(§8) In vivo efficacy was examined according to absolute tumor growth inhibition (TGI) and the safety was evaluated according to weight change and survival in mice.

For a further series, the system named is MC38 tumor cells. In words: Anti-tumor efficacy in MC38 model in C57BL/6 mouse (Example 11). To be noted: C57BL/6, MC38, 2 μmol/kg S.C. QD; for T/C (%) / TGI (%) / TV (mm^3) (Mean ± SEM) D6 / TV (mm^3) (Mean ± SEM) D10 / TV (mm^3) (Mean ± SEM) D13 / TV (mm^3) (Mean ± SEM) D17 / TV (mm^3) (Mean ± SEM) D20: Example 11; for TV (mm^3) at D21 (Mean ± SEM): Table 13. Format: in vivo. As for the experimental part: Animal species: Mus musculus; Strain: C57BL/6; Age: 6-8 weeks; Sex: female. The MC38 tumor cells were maintained in vitro in DMEM medium supplemented with 10% FBS at 37° C., 5% CO2. The cells growing in an exponential growth phase were harvested and counted for tumor inoculation. The culture MC38 were harvested, re-suspended in PBS containing 50% Matrigel at a density of 1×10^7 cells/mL. Each mouse was inoculated subcutaneously in the right flank region with 1×10^6 cells in 0.1 mL of PBS containing 50% Matrigel for tumor development.
The treatments were started when the mean tumor size reached 82-129 mm^3 (average tumor size 102 mm^3). Each group contained 6 tumor bearing mice. Group 1 was treated with Vehicle (10% DMSO+90% Saline), S.C., QD.
as §8
Statistical analysis of difference in tumor volume among the groups was performed using one-way ANOVA followed by individual comparisons using Games-Howell post-hoc test (equal variance not assumed). All data was analyzed using SPSS 22.0 software.

As to `CO[C@@H](CCSC)C(=O)N[C@@H](CCC(=O)C=[N+]=[N-])C(=O)OC(C)C` [Compound 443, isopropyl (S)-6-diazo-2-((S)-2-methoxy-4-(methylthio)butanamido)-5-oxohexanoate], in series [1], the microsomal CLint at 1 μM was found to be 239 µL/min/mg. In series [2], the “plasma stability (compound remaining)” value is “substantially intact”. In series [3], the “plasma stability (compound remaining)” value was “substantially intact”. Moreover, the microsomal CLint at 1 μM in series [4] came to 408 µL/min/mg. Also, in series [5], the “plasma stability (compound remaining)” value is listed as “substantially intact”. The “plasma stability (compound remaining)” value in series [6] is given as “substantially intact”. For the same molecule, in series [7], the microsomal CLint at 1 μM came to 180 µL/min/mg. The microsomal CLint at 1 μM in series [8] amounted to 81.9 µL/min/mg. Besides, the microsomal CLint at 1 μM in [9] came out at 73.5 µL/min/mg. Moreover, in [10], the “BW(g) (Mean ± SEM) Beginning (D6)” value is recorded as 19.9 ± 0.6 g, the “BW Change (%)” value is recorded as “+11.9%” and the “BW(g) (Mean ± SEM) End (D20)” value came to 22.3 ± 0.5 g. Moreover, in the series with MC38 tumor cells, the “T/C (%)” value came to 21.5%, the “TGI (%)” value came to 78.5%, the “TV (mm^3) (Mean ± SEM) D6” value is listed as 102 ± 6 mm^3 and the “TV (mm^3) (Mean ± SEM) D10” value amounted to 152 ± 25 mm^3. Also, in the series on MC38 tumor cells, the “TV (mm^3) (Mean ± SEM) D13” value is listed as 267 ± 65 mm^3, the “TV (mm^3) (Mean ± SEM) D17” value is listed as 384 ± 95 mm^3, the “TV (mm^3) (Mean ± SEM) D20” value is on record as 500 ± 119 mm^3 and the “TV (mm^3) at D21 (Mean ± SEM)” value was determined as 500 ± 119 mm^3.
For the molecule `CO[C@@H](C)C(=O)N[C@@H](CCC(=O)C=[N+]=[N-])C(=O)SC(C)C` [Compound 459, S-isopropyl (S)-6-diazo-2-((S)-2-methoxypropanamido)-5-oxohexanethioate], the microsomal CLint at 1 μM in [1] worked out at 115 µL/min/mg. Moreover, in series [2], the “plasma stability (compound remaining)” value is “substantially intact”. Further, the “plasma stability (compound remaining)” value in [3] is “substantially intact”. For the same molecule, the microsomal CLint at 1 μM in series [4] is 71.7 µL/min/mg. Further, the “plasma stability (compound remaining)” value in series [5] was “substantially intact”. In addition, in series [6], the “plasma stability (compound remaining)” value is given as “substantially intact”. In series [7], the microsomal CLint at 1 μM worked out at 130 µL/min/mg. For the same molecule, the microsomal CLint at 1 μM in series [8] is 9.57 µL/min/mg. Further, the microsomal CLint at 1 μM in [9] was 18.9 µL/min/mg. Also, in [10], the “BW(g) (Mean ± SEM) Beginning (D6)” value is on record as 19.9 ± 0.3 g, the “BW Change (%)” value was “+6.3%” and the “BW(g) (Mean ± SEM) End (D20)” value was 21.1 ± 0.5 g. Moreover, in the series on MC38 tumor cells, the “T/C (%)” value amounted to 11.8%, the “TGI (%)” value was found to be 88.2%, the “TV (mm^3) (Mean ± SEM) D6” value is 102 ± 5 mm^3 and the “TV (mm^3) (Mean ± SEM) D10” value amounted to 148 ± 22 mm^3. Also, in the series with MC38 tumor cells, the “TV (mm^3) (Mean ± SEM) D13” value worked out at 183 ± 30 mm^3, the “TV (mm^3) (Mean ± SEM) D17” value turned out to be 281 ± 65 mm^3, the “TV (mm^3) (Mean ± SEM) D20” value is 275 ± 59 mm^3 and the “TV (mm^3) at D21 (Mean ± SEM)” value came to 275 ± 59 mm^3.

For the origin of these results see patent US12577201B2, “Glutamine analogs” (Jacobio Pharmaceuticals Co., Ltd., priority 2020, dated 2026).
